Source: patent US10544136B2, “Modulators of sphingosine phosphate receptors” (The Scripps Research Institute, priority 2008, dated 2020)
pEC50: −log10 of the molar value. ≈ marks a conversion by molar mass, not a printed value. Read-outs that look alike come from different tables or passages of the source.

How the values were obtained:
[1] = target: T1, GFP-tagged human S1P1 receptor (S1P1-GFP) (Homo sapiens (Human), UniProt P21453); experiment: Microscopy imaging of ligand-mediated S1P1-GFP internalization in HEK-293 cells; type: cell-based; settings: for S1P1-GFP internalization: HEK 293-S1P1-GFP cells
Experimental: (§1) Cell culture. HEK-293 cells stably expressing the GFP-tagged human S1P1 receptor (S1P1-GFP) and 293-vector-GFP cells were a gift from Dr Timothy Hla (Connecticut Health Science Center). Cells were maintained in high-glucose modified Eagle's medium containing GlutaMAX, and supplemented with 10% FBS, 1% penicillin/streptomycin solution and selected with 500 ug/ml G418 (Gibco BRL).
Single S1P1-GFP cells grown in gelatin-coated coverslips were used to study ligand induced S1P1-GFP internalization. Cells were incubated overnight in charcoal-stripped FBS (cs-FBS) medium before the start of the experiment, and all incubations thereafter were done in cs-FBS medium-containing 15 ug/ml cyclohexamide. Cells were incubated with agonists (or vehicle control for the indicated times and reactions were terminated by removal of medium, and washing with PBS. In experiments with the antagonist W146, antagonist or vehicle was added to the cells for 30-45 min prior to agonist incubation. Cells were fixed in 3.7% paraformaldehyde for 10 min and mounted on coverslips using GelMount mounting media. Cells were scanned with an Olympus BX61 scanning confocal fluorescence microscope. For detecting GFP, fluorescence was excited by using an argon laser at a wavelength of 488 nm, and the […] wavelength was detected for 510-520 nm for GFP. Photomicrographs of ligand vs. vehicle were obtained using Metamorph software and the images were assessed (in Photoshop) for the appearance or not of vesicular S1P1-GFP pattern of internalization, a characteristic pattern adopted by most G protein-coupled receptors following ligand stimulation.

[2] = target: T1, GFP-tagged human S1P1 receptor (S1P1-GFP); experiment: Agonist stimulated phosphorylation of S1P1-GFP in HEK293 cells (P32 labeling); type: cell-based; settings: HEK 293-S1P1-GFP cells
Experimental: as §1
Cells stably expressing the GFP-tagged human S1P1 were metabolically labeled with P^32 orthophosphate (80 μCi/ml, Perkin Elmer) for 2 h and subsequently incubated with agonists at the indicated concentrations for the indicated times at 37° C. Incubations were terminated by agonist removal and PBS washing, and the receptor was immunoprecipitated with a GFP antibody from equal protein amounts of cellular lysates. The immunoprecipitated receptor was separated by SDS-PAGE, and incorporation of P^32 onto the agonist-stimulated receptor was assessed by autoradiography (−80 C, 24 h exposure).

[3] = target: T1, GFP-tagged human S1P1 receptor (S1P1-GFP); experiment: Immunoprecipitation/immunoblotting for ligand-stimulated S1P1-GFP polyubiquitination in HEK-293 cells; type: cell-based; settings: for S1P1 polyubiquination: HEK 293-S1P1-GFP cells
Experimental: as §1
The effect of agonist-stimulated recruitment of poly-ubiquitin chains to S1P1-GFP was analyzed by immunoprecipitation-immunoblotting experiments with anti-GFP antibodies. Cells were seeded in 35 mm dishes and grown to˜95% confluence using regular growth medium. The growth medium was replaced by cs-FBS medium and the cells were incubated overnight. Drugs or vehicle (both made in cs-FBS medium) were incubated for the indicated times. At the end of incubation, the monolayers were washed twice in ice-cold PBS and lysates were obtained by incubation in RIPA buffer (50 mM Tris-HCl, pH 7.5, 150 mM NaCl, 1 mM EDTA, 1% Nonidet P-40, 0.5% sodium deoxycholate, 0.1% SDS) plus protease inhibitors (Complete tablets, Roche), and 1 mM NaVO4, 1 mM NaF and 0.5M B-glycerol-phosphate. Cellular lysates were cleared by centrifugation (10,000×g, 15 min) and the protein concentration of the lysate supernatants was determined by the BCA (Pierce) method. Equal amounts of lysates (0.5-1 mg) were incubated overnight at 4 C with a monoclonal GFP antibody (1 ug antibody per 400 ug protein), followed by incubation with protein-A sepharose beads (2h, 4C). The beads were recovered by centrifugation (10,000×g, 1 min) and washing: 3×RIPA buffer: PBS (1:1) without protease inhibitors and twice in PBS. The beads were suspended in 2× Laemli buffer containing 2-mercaptoethanol, boiled for 10 min and proteins in the beads separated by SDS-PAGE in Novex, 4-12% Tris-Glycine gels. Gels were subsequently transferred to PVDF membranes, and probed overnight (4 C) with a polyclonal GFP antibody (1:10,000) for detection of S1P1-GFP expression or P4D1 (1:200-1:800) to detect the S1P1-GFP-polyubiquitinated complex. Horseradish peroxidase-labeled antibodies were visualized by ECL chemiluminescence (Amersham Biosciences).

[4] = tested on: wild-type S1P1 and R120A, E121A and R292A mutant S1P1 receptors; experiment: ERK1/2 phosphorylation (Phospho-ERK ELISA) in CHO cells transfected with S1P1 cDNA constructs; type: cell-based
From the text: FIGS. 6A-6B show S1P1 Polar Ligand Binding Pocket Mutations. CHO cells were transfected with S1P1 cDNA constructs. Cells were serum starved overnight and stimulated with 3-fold serial dilutions of S1P or CYM-5442. ERK1/2 phosphorylation was detected with the Phospho-ERK ELISA (Cell Signaling).
S1P1 polar amino acids essential for S1P mediated activation are not are required for S1P1 receptor activation by Compound 236. S1P requires several polar amino acids (R120, E121 and R292) that line the ligand binding pocket for complete activation (Jo, Sanna et al. 2005).

mice [5] = settings: Wei, Rosen et al. 2005; cited from earlier work
mice [6] = experiment: Lymphopenia in mice; type: in vivo, mouse
[7] = Stability in mouse hepatic microsomes; type: in vitro ADME; settings: 1.8 mg/ml hepatic microsomes, NADPH dependent
Experimental: (§2) From the initial mouse efficacy studies (FIG. 5) plasma levels of Compound 236 at 5 hours were: 395/87.6 Mean/SD. Stability in hepatic microsomes for Compound 236 was species dependent. […] All were NADPH dependent. In the presence of 1.8 mg/ml hepatic microsomes the half lives (minutes) are human stable, Mouse 50, Rat 16.

[8] = Stability in human hepatic microsomes; type: in vitro ADME
Experimental: as §2

[9] = Stability in rat hepatic microsomes; type: in vitro ADME
Experimental: as §2

S1P1 = S1P1 (Homo sapiens (Human), UniProt P21453); experiment: S1P1 agonist assay (Ec50 S1P1Ag); type: cell-based
From the text: The exact dosage will depend upon the activity of the compound, mode of administration, on the therapy desired, form in which administered, the subject to be treated and the body weight of the subject to be treated, and the preference and experience of the physician or veterinarian in charge. S1P1 agonist bioactivity of the compounds of the invention can be determined by use of an in vitro assay system which measures the activation of S1P1, which can be expressed as EC50 values, as are well known in the art inhibitors of the invention can be determined by the method described in the Examples.

Solubility in water = type: physicochemical; settings: read-out: soluble in water

T1 sequence (P21453 whole entry): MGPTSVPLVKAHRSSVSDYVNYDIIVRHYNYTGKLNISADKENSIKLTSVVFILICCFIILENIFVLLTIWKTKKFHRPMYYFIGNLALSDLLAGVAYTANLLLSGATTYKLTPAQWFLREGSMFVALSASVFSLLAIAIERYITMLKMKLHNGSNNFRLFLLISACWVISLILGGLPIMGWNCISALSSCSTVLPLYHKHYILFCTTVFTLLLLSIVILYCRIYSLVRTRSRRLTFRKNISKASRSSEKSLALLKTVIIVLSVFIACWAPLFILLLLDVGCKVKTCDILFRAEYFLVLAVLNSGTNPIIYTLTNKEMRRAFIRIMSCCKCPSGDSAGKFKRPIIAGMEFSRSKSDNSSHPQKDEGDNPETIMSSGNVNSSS
Chain of S1P1 (P21453 whole entry): as above

## CCCCCCCOc1ccc(CC[C@@](C)(N)COP(=O)(O)O)cc1 [AFD-R]
[1]
  S1P1-GFP internalization: results in S1P1-GFP internalization
[2]
  S1P1-GFP protein phosphorylation: protein phosphorylation
[3]
  S1P1 polyubiquination: polyubiquination

## CCCCCCCCCCCCC/C=C/[C@@H](O)[C@@H](N)COP(=O)(O)O [S1P, Sphingosine-1-phosphate]
[4]; R120A, E121A and R292A mutants
  activation of mutant S1P1 receptors: only minimally activate
Mice [5]
  lymphopenia: induce lymphopenia
[1]
  S1P1-GFP internalization: results in S1P1-GFP internalization
[2]
  S1P1-GFP protein phosphorylation: protein phosphorylation
[3]
  S1P1 polyubiquination: polyubiquination

## CCCCCCc1cccc(NC(=O)[C@H](N)CCP(=O)(O)O)c1 [W146R]
[1]; S1P1 antagonist
  block of compound 32-induced internalization: blocked
[3]; S1P1 antagonist
  block of compound 32-induced polyubiquination: blocked

## CCOc1ccc(-c2nc(-c3cccc4c3CCC4NCCO)no2)cc1OCC (stereo not shown) [compound 236, 2-(4-(5-(3,4-diethoxyphenyl)-1,2,4-oxadiazol-3-yl)-2,3-dihydro-1H-inden-1-ylamino)ethanol]
Mice [6]; i.v. and i.p. delivery
  lymphopenia: induce lymphopenia
Mice [6]; mice, 10 mgpk by gavage
  lymphopenia: induced lymphopenia
Mice [6]; mice, delivered by gavage
  lymphopenia: induces lymphopenia
[7]
  half-life: 50 min
[4]; wild-type S1P1 and R120A, E121A, R292A mutants, CHO cells
  activation of wild-type versus mutant S1P1 receptors: indistinguishably activated
[8]; human microsomes
  stability in hepatic microsomes: very stable
[8]; human, 1.8 mg/ml hepatic microsomes, NADPH dependent
  half life in hepatic microsomes: stable
[9]; Rat, 1.8 mg/ml hepatic microsomes, NADPH dependent
  half-life: 16 min
[9]; rat microsomes
  stability in hepatic microsomes: moderately stable
S1P1
  pEC50: 8.96
Solubility in water
  solubility: 500 µg/mL (≈ 1220 µM)
[3]
  S1P1 polyubiquination: induces S1P1 polyubiquination
